Measurements: US20160002204A1 (Board of Regents, The University of Texas System, priority 2014, published 2016)

How the values were obtained:
[1] = target: T1, GLS1 (purified recombinant human GAC) (Homo sapiens, UniProt O94925); test: GLS1 enzymatic activity assay (dual-coupled, Amplex UltraRed/resorufin); assay type: biochemical
T1 sequence (O94925 55-598 isoform O94925-3 limits assumed): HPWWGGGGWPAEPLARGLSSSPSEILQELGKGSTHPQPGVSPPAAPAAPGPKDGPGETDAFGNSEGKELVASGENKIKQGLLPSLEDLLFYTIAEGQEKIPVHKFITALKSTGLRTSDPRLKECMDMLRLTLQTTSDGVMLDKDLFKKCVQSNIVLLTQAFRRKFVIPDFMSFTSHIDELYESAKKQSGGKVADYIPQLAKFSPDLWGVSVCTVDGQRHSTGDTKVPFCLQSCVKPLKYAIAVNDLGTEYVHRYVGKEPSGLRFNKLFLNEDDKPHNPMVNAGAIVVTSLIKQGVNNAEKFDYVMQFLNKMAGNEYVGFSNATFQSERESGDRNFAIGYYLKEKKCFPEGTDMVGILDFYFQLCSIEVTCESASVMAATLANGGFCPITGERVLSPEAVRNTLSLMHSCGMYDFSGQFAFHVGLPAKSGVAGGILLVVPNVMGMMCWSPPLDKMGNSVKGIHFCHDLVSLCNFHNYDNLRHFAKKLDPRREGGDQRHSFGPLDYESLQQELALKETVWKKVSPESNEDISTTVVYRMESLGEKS
In short: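 Recombinant human GAC (2 nM) preincubated with 50 mM potassium phosphate, then inhibitor (10 min each, RT); 1 mM glutamine, pH 7.4 Hepes buffer, 1% DMSO. Glutamate coupled via glutamate oxidase/HRP to resorufin (Ex 530/Em 590), kinetic or 20-min endpoint; IC50 by four-parameter logistic fit.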

A549 cells = test: A549 proliferation (viability) assay, Cell Titer Fluor, 72 hours; assay type: cell-based; conditions: Homo sapiens
In short: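 Seed A549 at 1000 cells/well and culture 24 h. Add compound (final DMSO 0.5%) and incubate 72 h at 37 °C. Add Cell Titer Fluor, mix 15 min, incubate 30 min, read fluorescence and fit EC50 by four-parameter logistic.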

| Structure (SMILES) | IC50 [1] [nM] | EC50 (A549 cells) [nM] |
| --- | --- | --- |
| O=C(Cc1ccccc1)Nc1ccn(CCCCc2nnc(C(=O)NCc3ncccc3F)s2)c(=O)c1 [Example 453, N-[(3-fluoropyridin-2-yl)methyl]-5-{4-[2-oxo-4-(2-phenylacetamido)-1,2-dihydropyridin-1-yl]butyl}-1,3,4-thiadiazole-2-carboxamide] | 100 to 500 | 500 to 5000 |
| O=C(Nc1ccn(CCC(F)Cn2cc(C(=O)NCc3cccc(OC(F)(F)F)c3)nn2)c(=O)c1F)C(=O)N1CCCCC1 (stereo not shown) [Example 358, 1-(2-fluoro-4-(3-fluoro-2-oxo-4-(2-oxo-2-(piperidin-1-yl)acetamido)pyridin-1(2H)-yl)butyl)-N-(3-(trifluoromethoxy)benzyl)-1H-1,2,3-triazole-4-carboxamide] | < 100 | < 100 |
| O=C(CN1CCCC(F)(F)C1)Nc1ccn(CCC(F)Cn2cc(C(=O)NCc3cccc(OC(F)(F)F)c3)nn2)c(=O)c1F (stereo not shown) [Example 295, 1-(4-{4-[2-(3,3-difluoropiperidin-1-yl)acetamido]-3-fluoro-2-oxo-1,2-dihydropyridin-1-yl}-2-fluorobutyl)-N-{[3-(trifluoromethoxy)phenyl]methyl}-1H-1,2,3-triazole-4-carboxamide] | < 100 | < 100 |
| O=C(NCc1cccc(OC(F)(F)F)c1)c1cn(CC(F)CCn2ccc(NC(=O)C3CCCCC3)c(F)c2=O)nn1 (stereo not shown) [Example 341, 1-[4-(4-cyclohexaneamido-3-fluoro-2-oxo-1,2-dihydropyridin-1-yl)-2-fluorobutyl]-N-{[3-(trifluoromethoxy)phenyl]methyl}-1H-1,2,3-triazole-4-carboxamide] | < 100 | < 100 |
| O=C(CC1CCC1)Nc1ccn(CCC(F)Cn2cc(C(=O)NCc3cccc(OC(F)(F)F)c3)nn2)c(=O)c1F (stereo not shown) [Example 339, 1-{4-[4-(2-cyclobutylacetamido)-3-fluoro-2-oxo-1,2-dihydropyridin-1-yl]-2-fluorobutyl}-N-{[3-(trifluoromethoxy)phenyl]methyl}-1H-1,2,3-triazole-4-carboxamide] | < 100 | < 100 |
| O=C(CC1CCCC1)Nc1ccn(CCC(F)Cn2cc(C(=O)NCc3ccc(C(F)(F)F)nc3)nn2)c(=O)c1F (stereo not shown) [Example 369, 1-{4-[4-(2-cyclopentylacetamido)-3-fluoro-2-oxo-1,2-dihydropyridin-1-yl]-2-fluorobutyl}-N-{[6-(trifluoromethyl)pyridin-3-yl]methyl}-1H-1,2,3-triazole-4-carboxamide] | < 100 | < 100 |
| O=C(Cc1ccccc1)Nc1ccc(CCCCn2ccc(NC(=O)[C@@H](O)c3ccccc3)nc2=O)nn1 [Example 22, (S)-2-hydroxy-N-(2-oxo-1-(4-(6-(2-phenylacetamido)pyridazin-3-yl)butyl)-1,2-dihydropyrimidin-4-yl)-2-phenylacetamide] | < 100 | 500 to 5000 |
| O=C(CC1CCC1)Nc1ccn(CCC(F)Cn2cc(C(=O)NCc3cncc(C(F)(F)F)c3)nn2)c(=O)c1F (stereo not shown) [Example 350, 1-{4-[4-(2-cyclobutylacetamido)-3-fluoro-2-oxo-1,2-dihydropyridin-1-yl]-2-fluorobutyl}-N-{[5-(trifluoromethyl)pyridin-3-yl]methyl}-1H-1,2,3-triazole-4-carboxamide] | < 100 | < 100 |
| O=C(Cc1ccccc1)Nc1ccn(CCC(F)Cn2cc(C(=O)NCc3cncc(C(F)(F)F)c3)nn2)c(=O)c1F (stereo not shown) [Example 348, 1-{2-fluoro-4-[3-fluoro-2-oxo-4-(2-phenylacetamido)-1,2-dihydropyridin-1-yl]butyl}-N-{[5-(trifluoromethyl)pyridin-3-yl]methyl}-1H-1,2,3-triazole-4-carboxamide] | < 100 | < 100 |
| CC(C)COC(=O)Nc1ccn(CCCCc2ccc(NC(=O)Cc3ccccc3)nn2)c(=O)n1 [Example 98, 2-methylpropyl N-(2-oxo-1-{4-[6-(2-phenylacetamido)pyridazin-3-yl]butyl}-1,2-dihydropyrimidin-4-yl)carbamate] | < 100 | 100 to 500 |
| Nc1nnc(CCCCn2ccc(NC(=O)Cc3cccc(OC(F)(F)F)c3)nc2=O)s1 [Example 79, N-{1-[4-(5-amino-1,3,4-thiadiazol-2-yl)butyl]-2-oxo-1,2-dihydropyrimidin-4-yl}-2-[3-(trifluoromethoxy)phenyl]acetamide] | 500 to 5000 | 500 to 5000 |
| O=C(CN1CCCC(F)C1)Nc1ccn(CCC(F)Cn2cc(C(=O)NCc3cccc(OC(F)(F)F)c3)nn2)c(=O)c1 (stereo not shown) [Example 275, 1-(2-fluoro-4-{4-[2-(3-fluoropiperidin-1-yl)acetamido]-2-oxo-1,2-dihydropyridin-1-yl}butyl)-N-{[3-(trifluoromethoxy)phenyl]methyl}-1H-1,2,3-triazole-4-carboxamide] | < 100 | < 100 |
| O=C(Cc1cccc(OC(F)(F)F)c1)Nc1ccn(CCCCc2nnc(C(=O)NCc3ncccc3F)s2)c(=O)c1 [Example 454, N-[(3-fluoropyridin-2-yl)methyl]-5-[4-(2-oxo-4-{2-[3-(trifluoromethoxy)phenyl]acetamido}-1,2-dihydropyridin-1-yl)butyl]-1,3,4-thiadiazole-2-carboxamide] | < 100 | 100 to 500 |
| CCOC(=O)N1CCC(CC(=O)Nc2ccn(CCC(F)Cn3cc(C(=O)NCc4cccc(OC(F)(F)F)c4)nn3)c(=O)c2F)CC1 (stereo not shown) [Example 300, ethyl 4-{[(3-fluoro-1-{3-fluoro-4-[4-({[3-(trifluoro-methoxy)phenyl]methyl}carbamoyl)-1H-1,2,3-triazol-1-yl]butyl}-2-oxo-1,2-dihydropyridin-4-yl)carbamoyl]methyl}piperidine-1-carboxylate] | < 100 | < 100 |
| O=C(NCc1cc(C(F)(F)F)ccn1)c1cn(CC(F)CCn2ccc(Cn3ccccc3=O)cc2=O)nn1 (stereo not shown) [Example 494, 1-(2-fluoro-4-{2-oxo-4-[(2-oxo-1,2-dihydropyridin-1-yl)methyl]-1,2-dihydropyridin-1-yl}butyl)-N-{[4-(trifluoromethyl)pyridin-2-yl]methyl}-1H-1,2,3-triazole-4-carboxamide] | 500 to 5000 | > 5000 |
| O=C(Cc1ccccc1)Nc1ccn(CCC(F)Cn2cc(C(=O)NCc3cccc(OC(F)(F)F)c3)nn2)c(=O)c1F (stereo not shown) [Example 180] | < 100 | < 100 |

Continued, values first:

| IC50 [1] [nM] | EC50 (A549 cells) [nM] | Structure (SMILES) |
| --- | --- | --- |
| < 100 | 100 to 500 | O=C(CC1CCCC1)Nc1cnn(CCC(F)Cn2cc(C(=O)NCc3cccc(OC(F)(F)F)c3)nn2)c(=O)c1 (stereo not shown) [Example 386, 1-(4-(4-(2-cyclopentylacetamido)-6-oxopyridazin-1(6H)-yl)-2-fluorobutyl)-N-(3-(trifluoromethoxy)benzyl)-1H-1,2,3-triazole-4-carboxamide] |
| < 100 | < 100 | O=C(CC1CCCCC1)Nc1ccn(CCC(F)Cn2cc(C(=O)NCc3ccccn3)nn2)c(=O)c1F (stereo not shown) [Example 267, 1-{4-[4-(2-cyclohexylacetamido)-3-fluoro-2-oxo-1,2-dihydropyridin-1-yl]-2-fluorobutyl}-N-(pyridin-2-ylmethyl)-1H-1,2,3-triazole-4-carboxamide] |
| < 100 | < 100 | CC(C)(C)COC(=O)Nc1ccn(CCC(F)Cn2cc(C(=O)NCc3cccc(OC(F)(F)F)c3)nn2)c(=O)n1 (stereo not shown) [Example 493, 2,2-dimethylpropyl N-(1-{3-fluoro-4-[4-({[3-(trifluoro-methoxy)phenyl]methyl}carbamoyl)-1H-1,2,3-triazol-1-yl]butyl}-2-oxo-1,2-dihydropyrimidin-4-yl)carbamate] |
| 100 to 500 | 100 to 500 | O=C(Nc1ccn(CCC(F)Cn2cc(C(=O)NCc3ccc(C(F)(F)F)nc3)nn2)c(=O)c1F)OC1CCC1 (stereo not shown) [Example 399, cyclobutyl N-(3-fluoro-1-{3-fluoro-4-[4-({[6-(trifluoromethyl)pyridin-3-yl]methyl}carbamoyl)-1H-1,2,3-triazol-1-yl]butyl}-2-oxo-1,2-dihydropyridin-4-yl)carbamate] |
| < 100 | 500 to 5000 | O=C(Cc1cccc(OC(F)(F)F)c1)Nc1ccn(CCCCn2cc(C(=O)NCC3CCCCC3)nn2)c(=O)c1 [Example 41, N-(cyclohexylmethyl)-1-[4-(2-oxo-4-{2-[3-(trifluoro-methoxy)phenyl]acetamido}-1,2-dihydropyridin-1-yl)butyl]-1H-1,2,3-triazole-4-carboxamide] |
| < 100 | < 100 | O=C(CC1CCCC1)Nc1ccn(CCC(F)Cn2cc(C(=O)NCc3ccc(C(F)(F)F)cn3)nn2)c(=O)c1F (stereo not shown) [Example 394, 1-{4-[4-(2-cyclopentylacetamido)-3-fluoro-2-oxo-1,2-dihydropyridin-1-yl]-2-fluorobutyl}-N-{[5-(trifluoromethyl)pyridin-2-yl]methyl}-1H-1,2,3-triazole-4-carboxamide] |
| < 100 | 100 to 500 | COC1CCC(CC(=O)Nc2ccn(CCCCn3cc(C(=O)NCc4cccc(OC(F)(F)F)c4)nn3)c(=O)c2)CC1 (stereo not shown) [Example 170, 1-(4-{4-[2-(4-methoxycyclohexyl)acetamido]-2-oxo-1,2-dihydropyridin-1-yl}butyl)-N-{[3-(trifluoromethoxy)phenyl]methyl}-1H-1,2,3-triazole-4-carboxamide] |
